Measured values from patent US7727949B2, “Cleaning agent for thermostatic chambers” (Wako Pure Chemical Industries, Ltd., priority 2005, dated 2010).

Experiments:
Format in all cases: cell-based
[1] = tested on: Aspergillus niger (NBRC6341); assay: Study of antimicrobial activity (MIC, agar plate medium)
Protocol: (§1) In a sterilized petri dish having a diameter of 90 mm, an aqueous solution which was obtained by diluting each of agents with distilled water such that a concentration of the agent become each predetermined concentrations when the solution is prepared to a total volume of 20 mL, and then sterilized water was added into the petri dish such that a total volume of sterilized water and the agent aqueous solution become 2 mL. Further, 18 mL of nutrient agar medium, which was sterilized with high pressure steam and preserved at 50° C.±2° C., was added into the petri dish, and it was solidified to obtain an agar plate medium.
(§2) The individual test microorganism, which was preliminarily cultured in bouillon medium in advance until 1×10^8 microorganisms/mL, was diluted with sterilized physiological saline for 100 times (to 1×10^6 microorganisms/mL). Next, prepared solution of the test microorganism was smeared with a platinum loop on the surface of the agar plate medium prepared in (2), and the medium was cultured at 35° C.±2° C., for 24 hours.
(§3) After the cultivation, confirming the presence or not of growth of the microorganism on the surface of the medium was conducted, a minimum concentration of the agent, where growth of the microorganisms cannot be recognized, was determined as the minimum inhibitory concentration (MIC, μg/mL) of the agent.

[2] = tested on: Staphylococcus aureus (NBRC12732); assay: as above
Protocol: as §1, §2, §3

[3] = tested on: Penicillium citrinum (NBRC6352); assay: as above
Protocol: as §1, §2, §3

[4] = tested on: Trichoderma viride (NBRC31831); assay: as above
Protocol: as §1, §2, §3

[5] = tested on: Escherichia coli (NBRC3972); assay: as above
Protocol: as §1, §2, §3

[6] = tested on: Bacillus subtilis (NBRC13719); assay: as above
Protocol: as §1, §2, §3

[7] = tested on: Cladosporium cladosporioides (NBRC6348); assay: as above
Protocol: as §1, §2, §3

[8] = tested on: Pseudonas aeruginosa (NBRC12689); assay: as above
Protocol: as §1, §2, §3

[9] = tested on: Chaetomium globosum (NBRC6347); assay: as above
Protocol: as §1, §2, §3

[10] = tested on: Staphylococcus aureus (NBRC12732); assay: Study of germicidal activity of agents in the presence of proteins; set-up: key to growth of the microorganism S.a: a case where growth of the microorganism on the surface of the medium was recognized is shown by +; a case where growth of the microorganism on the surface of the medium was not recognized is shown by −; settings: for growth of the microorganism S.a: agent 50 μg/mL
Protocol: (§4) Didecyldimethylammonium adipate (DDAA), N-bis(3-aminopropyl)dodecylamine (TAA) and benzalkonium chloride were respectively prepared such that a concentration thereof is 1 w/w %.
(§5) GOT solution: GOT Substrate-Enzyme solution and GOT•L2α-KG solution which were components of L type Wako GOT•J2 kit (produced by Wako Pure Chemical Industries, Ltd.) were prepared with distilled water so as to become a 0.1 w/w % aqueous solution.
(§6) GPT solution: GOT Substrate-Enzyme solution and GOT•L2α-KG solution which were components of L type Wako GPT•J2 kit (produced by Wako Pure Chemical Industries, Ltd.) were prepared with distilled water so as to become a 0.1 w/w % aqueous solution.
(§7) Serum: Control Serum II Wako (produced by Wako Pure Chemical Industries, Ltd.) was prepared with distilled water so as to become a 0.1 w/w % aqueous solution.
(§8) i) The individual test microorganism, which was preliminarily cultured in bouillon medium in advance until 1×10^8 microorganisms/mL, were diluted with sterilized physiological saline for 100 times (to 1×10^6 microorganisms/mL) to obtain a solution of test microorganisms. ii) Into a 20 mL test tube made of glass which was preliminarily sterilized by dry-heat sterilization, the agent aqueous solution, the reagent solution and the solution of test microorganisms as prepared in the above described i) were added such that a final concentration of the agent become 50 μg/mL, a final concentration of the reagent become 100 μg/mL, and the number of test microorganisms become 1×10^5 microorganisms/mL, respectively, when a total volume thereof is prepared to be 10 mL. And then, the tube was sufficiently stirred. iii) After a lapse of predetermined times (5 min, 10 min, and 15 min), the solution as obtained in the above described ii) was smeared with a platinum loop on the surface of the nutrient agar plate medium preliminarily having been prepared, and the medium was cultured at 35° C.±2° C. for 24 hours. iv) After the cultivation, confirming the presence or not of the growth of the microorganisms on the surface of the medium was conducted. (3) Result
(§9) In Table 3, a case where growth of the microorganism on the surface of the medium was recognized is shown by +, and a case where growth of the microorganism on the surface of the medium was not recognized is shown by −, respectively.

[11] = tested on: Pseudonas aeruginosa (NBRC12689); assay: as above; set-up: key to growth of the microorganism P.a: a case where growth of the microorganism on the surface of the medium was recognized is shown by +; a case where growth of the microorganism on the surface of the medium was not recognized is shown by −; settings: for growth of the microorganism P.a: agent 50 μg/mL
Protocol: as §4, §5, §6, §7, §8, §9

[12] = data are not shown, effect does not change in the presence of protein

| Compound | Minimum Inhibitory Concentration A.n [1] | Minimum Inhibitory Concentration S.a [2] | Minimum Inhibitory Concentration P.c [3] | Minimum Inhibitory Concentration T.v [4] | Minimum Inhibitory Concentration E.c [5] | Minimum Inhibitory Concentration B.s [6] | Minimum Inhibitory Concentration Cl.cl [7] | Minimum Inhibitory Concentration P.a [8] | Minimum Inhibitory Concentration C.g [9] | growth of the microorganism S.a ([10]; GOT, 5 min) | growth of the microorganism S.a ([10]; GOT, 10 min) | growth of the microorganism S.a ([10]; GOT, 15 min) | growth of the microorganism S.a ([10]; GPT, 5 min) | growth of the microorganism S.a ([10]; GPT, 10 min) | growth of the microorganism S.a ([10]; GPT, 15 min) | growth of the microorganism S.a ([10]; Serum, 5 min) | growth of the microorganism S.a ([10]; Serum, 10 min) | growth of the microorganism S.a ([10]; Serum, 15 min) | growth of the microorganism P.a ([11]; GOT, 5 min) | growth of the microorganism P.a ([11]; GOT, 10 min) | further results |
| --- | --- | --- | --- | --- | --- | --- | --- | --- | --- | --- | --- | --- | --- | --- | --- | --- | --- | --- | --- | --- | --- |
| CCCCCCCCCCCCN(CCCN)CCCN [TAA, N-bis(3-aminopropyl)dodecylamine] | 200 µg/mL | 3.125 µg/mL | 200 µg/mL | 50 µg/mL | 50 µg/mL | 3.125 µg/mL | 25 µg/mL | 100 µg/mL | 100 µg/mL | − | − | − | − | − | − | − | − | − | − | − | germicidal activity to Staphylococcus aureus [10, 12]: high germicidal activity; growth of the microorganism P.a ([11]; GOT, 15 min): −; growth of the microorganism P.a ([11]; GPT, 5 min): −; growth of the microorganism P.a ([11]; GPT, 10 min): −; growth of the microorganism P.a ([11]; GPT, 15 min): −; growth of the microorganism P.a ([11]; Serum, 5 min): −; growth of the microorganism P.a ([11]; Serum, 10 min): −; growth of the microorganism P.a ([11]; Serum, 15 min): −; germicidal activity to Pseudonas aeruginous [11, 12]: high germicidal activity |
| Didecyldimethylammonium adipate [DDAA] | 400 µg/mL | <1.563 µg/mL | 400 µg/mL | 200 µg/mL | 100 µg/mL | <1.563 µg/mL | 100 µg/mL | 400 µg/mL | 200 µg/mL | − | − | − | − | − | − | − | − | − | − | − | growth of the microorganism P.a ([11]; GOT, 15 min): −; growth of the microorganism P.a ([11]; GPT, 5 min): −; growth of the microorganism P.a ([11]; GPT, 10 min): −; growth of the microorganism P.a ([11]; GPT, 15 min): −; growth of the microorganism P.a ([11]; Serum, 5 min): −; growth of the microorganism P.a ([11]; Serum, 10 min): −; growth of the microorganism P.a ([11]; Serum, 15 min): − |
| benzalkonium chloride [BC, reference compound] | 1,600 μg/mL | 6.25 µg/mL | 800 µg/mL | 400 µg/mL | 100 µg/mL | <1.563 µg/mL | 200 µg/mL | 800 µg/mL | 400 µg/mL | − | − | − | − | − | − | + | + | + | + | + | growth of the microorganism P.a ([11]; GOT, 15 min): +; growth of the microorganism P.a ([11]; GPT, 5 min): +; growth of the microorganism P.a ([11]; GPT, 10 min): +; growth of the microorganism P.a ([11]; GPT, 15 min): +; growth of the microorganism P.a ([11]; Serum, 5 min): +; growth of the microorganism P.a ([11]; Serum, 10 min): +; growth of the microorganism P.a ([11]; Serum, 15 min): + |
